Entries after “also recorded” stand apart in the source; their conditions may differ. Where two headings read alike, the source gives them in different places. Blank lines part the entries; values can stand above or below the compound they belong to.
Assays:
[1] = in vitro metabolic stability in dog plasma; format: in vitro ADME; conditions: 30 min and 60 min
Experimental: Percentage remaining was calculated in the following manner.

[2] = plasma and CSF pharmacokinetics of DON in monkeys after i.v. DON or 14b; format: in vivo, pigtail macaques; conditions: Monkey, FIG. 58B
Experimental: Pharmacokinetic Studies in Non-human primates. All monkey studies were conducted according to protocol (#PR15M298) approved by the Animal Care and Use Committee at Johns Hopkins University. Two female pigtail monkeys (approximately 3.5 kg, non-drug naive) were adjacently housed in stainless steel cages on a social interaction rack (contains 4 cages, each 32.5″ wide×28″ deep×32″ high) maintaining temperature of 64-84° F., humidity of 30-70% with alternating 14-10 hour light/dark cycle as per the USDA Animal Welfare Act (9 CFR. Parts 1, 2, and 3). Food was provided daily in amounts appropriate for the size and age of the animals and RO purified water provided ad libitum through an in-cage lixit valve. Food enrichment was provided Monday through Friday. Prior to drug administration, macaques were sedated with ketamine given as an intramuscular injection prior to test article administration. […]
Bioanalysis of DON. […] The mean predicted relative standard deviation for back calculated concentrations of the standards and QC's for all analytes were within the range of 85 to 115%, except for the lowest concentration which was within the range of 80 to 120% with an overall accuracy and precision of 6.7% and 6.6%, respectively.
Pharmacokinetic Analysis. […] Area under the curve (AUC) was calculated by log-linear trapezoidal rule to the end of sample collection (AUClast). […]

[3] = plasma and CSF pharmacokinetics of DON in swine after i.v. infusion; format: in vivo, Göttingen×Yucutan miniature swine; conditions: 60 min post-administration
Experimental: Compound: Compound 47 was dissolved in a sterile saline containing 5% ethanol and 5% Tween 80 on the date of administration.
Swine: Swine studies were conducted under a protocol approved by the Johns Hopkins Animal Care and Use Committee. Adult, female Göttingen×Yucutan miniature swine (Massachusetts General Hospital, MA) were housed in Johns Hopkins University facilities accredited by the Association for Assessment and Accreditation of Laboratory Animal Care International in compliance with the Animal Welfare Act, Animal Welfare Regulations, and the Public Health Service Policy on the Humane Care and Use of Laboratory Animals. Animals were maintained on a 14-h light and 10-h dark schedule, provided ad libitum water and a commercial miniswine diet (Teklad, Madison, WI) with environmental enrichment (fruit/vegetables) twice daily.

[4] = in vitro metabolic stability in pig plasma; conditions: 30 min and 60 min
[5] = in vitro metabolic stability in mouse plasma
[6] = in vitro metabolic stability in human plasma
[7] = in vitro metabolic stability in monkey plasma
CT26 colon cancer = assay: CT26 tumor model; format: in vivo, mice; conditions: single agent
4T1 tumor cells = assay: 4T1 breast cancer model; format: in vivo, BALB/c mice; conditions: single agent, about 1 mg/kg daily
Experimental: 4T1 tumor cells (0.1 million) were injected into the mammary fat pads of 8-week-old female BALB/c mice. Mice received vehicle (PBS) or 1 mg/kg compound 25 daily from day 5 to day 22. Photos were taken on day 30 after tumor inoculation (FIG. 57A). Tumor volume was measured 2-3 times weekly until WT mice were sacrificed (when size reached to 20 mm length or necrosis occurred). Day 0: 100K 4T1 cells s.c. in 4th mammary pad. Day 5-22: Daily compound 25.
4T1-Luc tumor cells (0.1 million) were injected into the mammary fat pads of 8-week-old female BALB/c mice. Mice received vehicle (PBS) or 1 mg/kg compound 25 daily from day 7. Anti-PD1 (5 mg/Kg) was administered on day 5, 8, and 12. Mice carrying 4T1-luc tumors are injected with Luciferin to measure luminescence from the tumor. IVIS imaging were taken on day 13.
4T1-Luc tumor cells (0.1 million) were injected into the mammary fat pads of 8-week-old female BALB/c mice. Mice received vehicle (PBS) or 1 mg/kg compound 25 daily from day 7 to day 16. Anti-PD1 (5 mg/Kg) was administered on day 5, 8, 12 and 17. Tumor volume was measured 2-3 times weekly until tumors were evaluated for tumor infiltrating cells on day 21. Tumor weights were measured on day 21. On day 21, the PD1 group tumor size looks like it was reduced, however, the result was not due to a tumor size reduction, but rather because one of the large tumor mice died.

MC38 colon cancer = assay: MC38 tumor model; format: in vivo, mice; conditions: single agent
colon cancer cells = assay: rechallenge of compound 25 treated mice with colon cancer cells; format: in vivo; conditions: mice previously treated with single agent
[8] = human microsomes
[9] = pig microsomes
[10] = mouse, in vivo
[11] = mouse, in vivo; remark: listed apart in the source
EL4 mouse lymphoma = EL4 mouse lymphoma model; conditions: in vivo
[12] = Cmax, tumor to gut ratio and GI toxicity of 25 vs DON at equimolar doses in mice; conditions: 0.8 mg/kg (equivalent) daily for 5 days
U87 human glioma cells = assay: U87 flank xenograft mouse model of GBM; format: in vivo
Experimental: Mice Efficacy Studies. All mouse efficacy studies were conducted according to protocol #MO13M69 approved by the Animal Care and Use Committee at Johns Hopkins University. Female athymic (RH-Foxn1nu mice) mice between 25 and 30 g were obtained (Harlan Sprague Dawley Inc. Indianapolis. Indiana), and maintained on a 12 hour light-dark cycle with ad libitum access to food and water. U87 human glioma cells were injected s.c. (5×10^6 cells in […] of PBS) in four separate locations on the flanks of each mouse. When tumors grew to a mean volume of around 200 mm^3, mice were randomized into either vehicle (HEPES-buffered saline, i.p.) or DON (1; 0.8 mg/kg, i.p.). In one cohort, mice were administered a single dose of the appropriate solution two hours after which glutamine levels were quantified in the tumor as described previously (Le et al., 2012). In brief, tumors were harvested, snap frozen, and homogenized in liquid N, then subjected to metabolite extraction using methanol and DI water. Quantification was performed using Agilent 6520 Quadrupole-Time-of-Flight (Q-TOF) mass spectrometer with Agilent 1290 HPLC and using Agilent Mass Hunter and Agilent Qualitative and Quantitative Analysis Software packages. Glutamine content was averaged by group for each individual tumor (n=3-4/group), depicted as relative intensity, and analyzed by one-tailed t test. In a second cohort, efficacy experiments were conducted. Mice were injected once daily for six days; tumor volumes were measured using digital calipers and calculated according to the formula: [volume=(largest tumor dimension)×(smallest tumor dimension)^2×0.52] at 2, 4, and 6 days after the onset of treatment. Each individual tumor (n=8-10/group) was normalized to its pretreatment volume, averaged and analyzed by repeated measures two-way analysis of variance (ANOVA). If significant, a Bonferroni post hoc test was subsequently applied. Significance was defined as p<0.05.

[13] = 5-day i.v. toxicity comparison of DON and 38 in pigs; format: in vivo
melanoma = melanoma growth model; conditions: in vivo
[14] = tolerability of daily treatment with DON or 25 in mice

- stability in dog plasma (in words) [1]: highly stable
- CSF:plasma ratio of DON (in words) [2]: enhanced CSF:plasma ratio
- stability in pig plasma (in words) [4]: highly stable
- stability in mouse plasma (in words) ([5]; 30 min and 60 min): rapidly metabolized
- PLASMA STABILITY Mouse ([5]; prodrug remaining within the 60 min incubation time, mouse plasma): 0%
- stability in human plasma (in words) ([6]; 30 min and 60 min): highly stable
- PLASMA STABILITY Human ([6]; prodrug remaining within the 60 min incubation time, human plasma): 91%
- stability in monkey plasma (in words) ([7]; 30 min and 60 min): highly stable
- PLASMA STABILITY Monkey ([7]; prodrug remaining within the 60 min incubation time, monkey plasma): 61%
SMILES: CC(C)OC(=O)[C@H](CCC(=O)C=[N+]=[N-])NC(=O)OC(C)OC(=O)C(C)(C)C (single isomer, unassigned) [Compound 14b, 1-Methylethyl 6-(1λ^5-diazynylidene)-N-({1-[(2,2-dimethylpropanoyl)oxy]ethoxy}carbonyl)-5-oxo-L-norleucinate]
- CSF delivery of DON (in words) [3]: substantially higher amounts of DON to the CSF; also recorded: enhanced CSF delivery of DON
- CSF:plasma ratio of DON (in words) [3]: increased CSF-to-plasma ratios; also recorded: enhanced CSF:plasma ratio

SMILES: CCOC(=O)[C@H](CCC(=O)C=[N+]=[N-])NC(=O)[C@@H](N)CC(C)C [Compound 25, Ethyl 2-(2-amino-4-methylpentanamido)-6-diazo-5-oxohexanoate]
- antitumor efficacy in CT26 tumor model (in words) (CT26 colon cancer): superior to CB-839; also recorded: robust response and improved overall survival
- antitumor efficacy in 4T1 breast cancer model (in words) (4T1 tumor cells): superior to CB-839; also recorded: robust response and improved overall survival; also recorded: inhibited the growth of mammary carcinoma tumor cells; also recorded: inhibits tumor growth
- antitumor efficacy in MC38 tumor model (in words) (MC38 colon cancer): complete and durable response; also recorded: inhibits colon cell proliferation and extends the survival of mice; also recorded: efficacious; also recorded: more efficacious than oxaliplatin
- colon cancer cell proliferation upon rechallenge (in words) (colon cancer cells): prevents colon cancer cell proliferation upon rechallenge
- liver microsomal stability (in words) [8]: moderate-high stability
- liver microsomal stability (in words) [9]: moderate-high stability
- blood counts (in words) [10]: some leukopenia
- body weight (in words) [10]: No weight loss
- bone marrow suppression (in words) [10]: no bone marrow suppression
- renal and liver function (in words) [10]: unaffected
- Cmax vs DON (in words) [11]: reduces Cmax
- tumor to gut ratio vs DON (in words) [11]: enhances tumor to gut ratio
- antitumor efficacy against lymphoma (in words) (EL4 mouse lymphoma): cure lymphoma; also recorded: efficacious
- GI toxicity, jejunum-ileum histology (in words) [12]: causes less GI toxicity

SMILES: [N-]=[N+]=CC(=O)CC[C@H](N)C(=O)O [DON, 6-diazo-5-oxo-L-norleucine]
- flank GBM tumor size (in words) (U87 human glioma cells; 0.8 mg/kg, i.p, q.d. days 1-6): dramatic reduction in tumor size
- glutamine metabolism in tumor (endogenous glutamine accumulation) (U87 human glioma cells; 0.8 mg/kg, i.p., 2 hours post-administration, flank GBM tumors): inhibited glutamine metabolism
- signs of toxicity (in words) (U87 human glioma cells; mice receiving DON 0.8 mg/kg, i.p, q.d.): significant signs of toxicity
- macroscopic stomach toxicity (in words) ([13]; 5 days of dosing): more severe stomach toxicity
- adverse clinical signs (in words) ([13]; DON 1.6 mg/kg vs 38 1.5 mg/kg, i.v. 2 h/day for 5 days, equivalent PBMC exposure): more adverse clinical signs; also recorded: more adverse clinical effects
- effect on melanoma growth (in words) (melanoma): modest effect on inhibiting melanoma growth
- antitumor efficacy against lymphoma (in words) (EL4 mouse lymphoma): cure lymphoma; also recorded: markedly inhibits lymphoma growth; also recorded: efficacious
- blood counts (in words) ([14]; daily high dose treatment): pan-cytopenia
- body weight (in words) ([14]; daily high dose treatment): weight loss
- renal and liver function (in words) ([14]; high dose): unaffected
- GI toxicity, jejunum-ileum histology (in words) [12]: significant inflammation

Reference: US11926640B2, “Prodrugs of glutamine analogs” (THE JOHNS HOPKINS UNIVERSITY, priority 2015, dated 2024)
